target: T1, HSD17B13 (Homo sapiens, UniProt Q7Z5P4); experiment: LC/MS estrone detection assay: conversion of estradiol to estrone by HSD17B13; format: biochemical; settings: 4 μM estradiol, 6 mM NAD, 30 nM HSD17B13 enzyme (E. coli expressed His-tagged), 2 hours at 26.5° C.
T1 construct: His; made in house; host or cells: E. coli
T1 sequence (Q7Z5P4 20-300): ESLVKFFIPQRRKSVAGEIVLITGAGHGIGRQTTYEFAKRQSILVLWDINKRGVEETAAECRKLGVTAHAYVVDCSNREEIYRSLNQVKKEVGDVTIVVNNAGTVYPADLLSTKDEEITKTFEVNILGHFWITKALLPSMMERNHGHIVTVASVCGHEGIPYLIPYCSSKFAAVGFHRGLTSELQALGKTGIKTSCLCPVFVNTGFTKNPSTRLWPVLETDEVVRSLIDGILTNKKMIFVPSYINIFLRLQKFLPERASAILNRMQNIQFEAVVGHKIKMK
Procedure: Example A: Estrone Detection Assay for Evaluation of HSD17ß13 Activity and Identification of Inhibitors
The liquid chromatography/mass spectrometry (LC/MS) estrone detection assay monitors the conversion of estradiol to estrone by HSD17B13. This assay was undertaken in a 96 wp format (Eppendorf deep well Plate 96/500) in an 80 μl reaction volume containing: 4 μM of Estradiol (E2; Cayman; #10006315), 6 mM NAD (Sigma; #N0623) and 30 nM HSD17B13 enzyme (in-house; E. coli expressed His-tagged, purified, soluble protein) in a reaction containing […] potassium phosphate buffer pH 7.4, with 0.5% vehicle (DMSO). Reactions were incubated for 2 hours at 26.5° C., and estradiol (E2) conversion to estrone (E1) was quantitated by LC-MS/MS based analyte detection for both E2 and E1 using LCMS grade reagents.
Reactions were terminated by the addition of two volumes of acetonitrile (MeCN: LCMS grade; CAS #75/05/8) containing deuterated (D4)-E1 used as internal standard (Clear Synth: #CS-T-54273; 500 ng/ml final concentration). Samples were applied to pre-prepared Bond Elut-C18 extraction cartridges (3 mL; Agilent; #12102028), washed and eluted in MeCN. Eluates were dried under nitrogen and re-suspended in 60% methanol (LCMS grade methanol; CAS #67/56/1) before submission for analysis. Aqueous linearity for E2 and E1 were included for quantification.
Analysis of samples was undertaken on a XBridge BEH C18 column (Waters; #186003033) using 0.1% Diethyl Amine in MeCN (mobile phase A; DEA CAS #109-89-7) and 0.1% Diethyl Amine in milli-Q water (mobile phase B) in a 3 min gradient allowing 25% B. Analytes were detected in negative mode using MRM analysis, with E2 having a RT of 1.85 min and E1 having a RT of 2 min. Activity of the enzyme, in the absence of NAD^+, was used to evaluate specificity of conversion. Enzyme activity in the presence of test samples was expressed as a percentage of the uninhibited enzyme activity, and plotted versus inhibitor concentration. Non-linear regression was performed using a four-parameter logistic model and GraphPad Prism software (GraphPad Software, La Jolla, CA). All assessments were undertaken in duplicate evaluations and pooled during extraction process and subsequently injected as duplicates for LC-MS/MS analysis.

Question: With `COc1ccccc1CCn1cnc2cccc(NC(=O)c3ccc(O)c(C(F)(F)F)n3)c2c1=O` [Example 6, 5-hydroxy-N-(3-(2-methoxyphenethyl)-4-oxo-3,4-dihydroquinazolin-5-yl)-6-(trifluoromethyl) picolinamide] as the molecule, how does the IC50 read?
Answer: ≤ 100 nM

Question: For `CC(C)(C)CCNC(=O)c1sccc1NC(=O)c1ccc(O)c(C(F)(F)F)n1` [Example 5, N-(2-((3,3-dimethylbutyl)carbamoyl)thiophen-3-y1)-5-hydroxy-6-(trifluoromethyl) picolinamide], which IC50 is on record?
Answer: ≤ 100 nM

Question: How did the IC50 turn out when `O=C(Nc1cccc2ncn(CCc3ccccc3C(F)(F)F)c(=O)c12)c1ccc(O)c(C(F)(F)F)n1` [Example 2, 5-hydroxy-N-(4-oxo-3-(2-(trifluoromethyl)phenethyl)-3,4-dihydroquinazolin-5-y1)-6-(trifluoromethyl)picolinamide] was run?
Answer: 100 to 500 nM

Question: `O=C(Nc1cc(Cl)sc1C(=O)NCCc1ccccc1OC(F)(F)F)c1ccc(O)c(C(F)(F)F)n1` [Example 7, N-(5-chloro-2-((2-(trifluoromethoxy)phenethyl)carbamoyl)thiophen-3-y1)-5-hydroxy-6-(trifluoromethyl)picolinamide] was tested. Which IC50 did it give?
Answer: 100 to 500 nM

Question: For `O=C(Nc1cccc2ncn(CCc3ccccc3OC(F)(F)F)c(=O)c12)c1ccc(O)c(C(F)(F)F)n1` [Example 1, 5-hydroxy-N-(4-oxo-3-(2-(trifluoromethoxy)phenethyl)-3,4-dihydroquinazolin-5-yl)-6-(trifluoromethyl)picolinamide], which IC50 is on record?
Answer: ≤ 100 nM

Question: For `O=C(Nc1cccc2ncn(Cc3ccccc3OC(F)(F)F)c(=O)c12)c1ccc(O)c(C(F)(F)F)n1` [Example 3, 5-hydroxy-N-(4-oxo-3-{[2-(trifluoromethoxy)phenyl]methyl}-3,4-dihydroquinazolin-5-yl)-6-(trifluoromethyl) pyridine-2-carboxamide], which IC50 is on record?
Answer: ≤ 100 nM

— patent publication US12617772B2, “Hydroxypyridine HSD17B13 inhibitors and uses thereof” (INIPHARM, INC., priority 2021, dated 2026)
